Measured values from US20050232912A1, “Enzyme phosphorylating ser46 of p53” (priority 2001, published 2005).

System: Human breast cancer cells MCF-7
Assay: Ser46-phosphorylating activity of nuclear extracts from doxorubicin-treated cells, Western blotting with anti-p53-phosphorylated-Ser46 antibodies
Type: cell-based
Conditions: MCF-7 cells, 3 μM doxorubicin, during 12 hours after treatment, substrate GST-p53
Procedure: Human breast cancer cells MCF-7 (hereinafter called “MCF-7”, ATCC) were cultured in DMEM medium (Sigma) containing 10% fetal bovine serum (GIBCO BRL) on 15 cm^2 dishes (Corning) up to 90% confluent state. These cells were treated with final 3 μM doxorubicin (Sigma, the same to adriamycin) by addition of its aqueous solution to the medium. After allowed to stand in an incubator, the cells were harvested at various time points.
The harvested cells from one dish were suspended and solubilized in 500 μl of cytoplasm extraction buffer (10 mM HEPES pH7.9, 2 mM MgCl2, 0.1 mM EDTA, 0.1 mM EGTA, 1% Nonidet NP-40, DTT 1 mM, Na3VO4 1 mM, NaF 5 mM, PMSF 0.5 mM, KCl 10 mM, leupeptin 5 μg/ml, antipain 5 μg/ml, chymostatin 5 μg/ml, pepstatinA 2 μg/ml). The solbilized cells were centrifuged at 15,000 rpm for 15 min. The pellets obtained were mixed with 100 μl nuclear extraction buffer (10 mM HEPES pH7.9, 2 mM MgCl2, 0.1 mM EDTA, 0.1 mM EGTA, 1% Nonidet NP-40, DTT 1 mM, Na3VO4 1 mM, NaF 5 mM, PMSF 0.5 mM, KCl 10 mM, NaCl 500 mM, leupeptin 5 μg/ml, antipain 5 μg/ml, chymostatin 5 μg/ml, pepstatinA 2 μg/ml), suspended well and centrifuged at 15,000 rpm for 15 min. […]
Next, the enzyme activity of the nuclear extracts was assayed using the antibodies. […] The phosphorylation of GST-p53 was detected in Western blotting probed with anti-p53-phosphorylated-Ser46 antibodies.

## COc1cccc2c1C(=O)c1c(O)c3c(c(O)c1C2=O)C[C@@](O)(C(=O)CO)C[C@@H]3O[C@H]1C[C@H](N)[C@H](O)[C@H](C)O1 [doxorubicin]
  activation of enzyme phosphorylating Ser46 of p53: greatly induced
